# Patent US7964584B2, “Method of treating or preventing osteoporosis comprising administering to a patient in need thereof an effective amount of pharmaceutical composition comprising benzamidine derivatives or their salts, and alendronic acid or its salt” (Dong Wha Pharmaceutical Co., Ltd., priority 2008, dated 2011)
# Tested on: osteoclast differentiation (co-culture of bone marrow cells and osteoblasts)
# Assay: Osteoclast differentiation via co-culture of bone marrow cells and osteoblasts, count of TRAP(+) MNCs
# Format: cell-based, mice
# Details: individual treatment, 7 days culture; for relative number of TRAP(+) MNCs (mature osteoclasts with 6 or more nuclei), control group = 100%: n=4
# Description: The osteoclast differentiation was induced by co-culture system between bone marrow cells and […] inhibitory effect of the drug on osteoclast differentiation was evaluated by treatment of single or combination formulation. […] Cells were removed from the bone marrow cells, followed by centrifugation. After the bone marrow cells were suspended in α-MEM medium supplemented with 10% FBS, and the numbers of the eukaryotic cells in the harvested bone marrow cells were counted and then immediately used for a co-culture system. The mouse calvaria were aseptically isolated from 1 2 day-old neonatal ICR mice, and the […], primary osteoblasts were isolated by sequential treatment with an enzyme solution of 0.2% collagenase. The isolated […] centrifuged, resuspended with α-MEM containing 10% FBS and cultured until confluent. Then, these cells were diluted to a desired cell number, and used for the experiment. The bone marrow cells (1×10^5 cells/well) and osteoblasts (3,000 cells/well) prepared in the above were plated in a 96-well plate using α-MEM medium supplemented with 10% FBS. At this time, differentiation factors, 1α,25-dihydroxyvitamin D3 (10^-8 M, hereinbelow, referred to as vitamin D3) and dexamethasone (10^-8 M), were co-added to the osteoclastic medium. The medium was replaced with fresh media containing the differentiation factors every 2 to 3 days. After 7 days, when multinucleated osteoclasts were observed, the medium was removed from the wells, and then the cells were fixed with PBS containing 10% formalin. An index of osteoclast formation was determined by counting number of Tartrate-Resistant Acid Phosphatase-positive multinucleated osteoclasts (herein below, referred to as TRAP(+) MNCs). The TRAP staining solution was contained naphtol AS-MX phosphate(pH5.0)as a substrate, Fast Red violet LB as a coloring agent and 50 mM tartaric acid and stored at a refrigerator until use. The number of TRAP(+) MNCs containing more than 6-7 or more nuclei were counted under a microscope. […] All experiments were performed using the osteoclastic media containing vitamin D3 and dexamethasone. […] Sodium alendronate hydrate was dissolved in purified water at a concentration of 0.2 mM, and then diluted 1,000 fold with the osteoclastic media to a final concentration of 0.2 μM. In this connection, a control group was maintained in 0.1% DMSO. Each experiment was performed by individual or combination treatment, as follows. […] The number of TRAP(+) MNCs with 6 or more nuclei were counted under a microscope. The results were expressed as a percentage of the relative number of mature osteoclast observed in each experimental group, when the number of mature osteoclast in the control group (solvent only) was regarded as 100%. […]
Compound,"relative number of TRAP(+) MNCs (mature osteoclasts with 6 or more nuclei), control group = 100% (0.1 μM)","relative number of osteoclast, control group = 100% (0.3 μM) [%]","relative number of osteoclast, control group = 100% (0.5 μM) [%]","relative number of TRAP(+) MNCs (mature osteoclasts with 6 or more nuclei), control group = 100% (0.2 μM)"
"CS(=O)(=O)O.CS(=O)(=O)O.Cc1nc(-c2ccc(OCCCCCOc3ccc(C(=N)NO)cc3)cc2)c(C(C)C)s1 [N-hydroxy-4-{5-[4-(5-isopropyl-2-methyl-1,3-thiazol-4-yl)phenoxy]pentoxy}benzamidine dimethanesulfonate]",significant reduction,52.4,34.5,–
"NCCCC(O)(P(=O)(O)O)P(=O)(O)O [sodium alendronate, reference compound]",–,–,–,80.6% and significantly reduced
